In brackets after ≈: the same amount, converted by molar mass.
How the values were obtained:
Type in all cases: cell-based
HIV-1 III B virus = assay: Anti-HIV activity assay (P24 antigen in MT-4 cells); conditions: for IC50: Human immunodeficiency virus 1, MT4, 96 h, MT-4 cells, HIV-1 III B 100TCID50, 96 h, P24 antigen, read-out: HIV IC50; for anti-HIV viral activity: statement in words
HCV = assay: Anti-hepatitis C virus (HCV) activity assay (HCV RNA in Huh7.5 cells); conditions: for EC50: Hepatitis C virus, Huh7.5, 72 h, Huh7.5 cells, 72 h, HCV RNA by RT-PCR, Reed-Muench, read-out: HCV EC50; for anti-HCV viral activity: statement in words
Procedure: Inoculate Huh7.5 cells into 96-well plates to a density of 3×10^4 cells/cm^2, culture for 24h, infect the cells with 45 IU/cell HCV supernatant, meanwhile, add drug solutions or solvent control for treatment.

Coxsackie virus B6 = assay: Coxsackie virus activity assay (CPE in Vero cells); conditions: Vero, read-out: COX-B6 IC50, Vero cells, about 100TCID50, CPE, Reed-Muench
PC12 cells [1] = assay: Neuroprotective activity assay, rotenone injury to PC12 cells (MTT); conditions: for viability at 10 µM: Rattus norvegicus, PC-12, 48 h, 10 μM test compound, 4 μM rotenone, 48 h, Control 100.0 ± 8.9, Model 73.2 ± 7.8, read-out: rotenone (surviving PC12 cells, MTT 570 nm); for protective effect on rotenone injury to PC12 cells: statement in words
Method in brief: (§1)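 Survival measured as MTT absorbance at 570 nm after 4 h dye uptake. Compounds (10 μM) were co-applied for 48 h to PC12 cells deprived of serum or exposed to 4 μM rotenone, following 24 h seeding on poly-lysine.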

PC12 cells [2] = assay: Neuroprotective activity assay, serum-deprived injury to PC12 cells (MTT); conditions: for viability at 10 µM: Rattus norvegicus, PC-12, 48 h, 10 μM test compound, 48 h, Control 100.0 ± 9.2, Model 69.3 ± 4.1, read-out: serum-deprived (surviving PC12 cells, MTT 570 nm); for protective effect on serum-deprived injury to PC12 cells: statement in words
Method in brief: as §1

[3] = system: Influenza A virus (hanfang359/95); assay: Determination of anti-influenza virus activity (CPE in MDCK cells); conditions: for IC50: Influenza A virus, MDCK, 36 h; for anti-influenza virus activities compared with the lead compound cajanine: statement in words

SMILES | IC50 (HIV-1 III B virus) | anti-HIV viral activity (HIV-1 III B virus) | EC50 (HCV) | anti-HCV viral activity (HCV) | IC50 (Coxsackie virus B6) | viability at 10 µM (PC12 cells [1]) | protective effect on rotenone injury to PC12 cells (PC12 cells [1]) | viability at 10 µM (PC12 cells [2]) | protective effect on serum-deprived injury to PC12 cells (PC12 cells [2]) | IC50 [3] | anti-influenza virus activities compared with the lead compound cajanine [3]
COc1cc(/C=C/CCc2ccccc2)cc(O)c1CC=C(C)C [Compound 10l, 2-isopentenyl-3-methoxy-5-[(E)-4′-phenylbuten-1′-yl]phenol] | 2.2 µg/mL (≈ 6.82 µM) | stronger anti-HIV, HCV viral activities | 0.95 µg/mL (≈ 2.95 µM) | stronger anti-HIV, HCV viral activities | > 18.2 µg/mL | 84.6 ± 6.2% | the strongest activities | 81.3 ± 2.9% | the strongest activities | 0.65 µg/mL (≈ 2.02 µM) | significantly stronger than the lead compound cajanine
COc1cc(/C=C/c2ccccc2)c(C(=O)O)c(O)c1C/C=C(\C)CCC=C(C)C [Compound 1o] | 1.76 µg/mL (≈ 4.33 µM) |  | 1.47 µg/mL (≈ 3.62 µM) |  | 1.36 µg/mL (≈ 3.35 µM) | 61 ± 2.8% |  | 28.1 ± 11.9% |  | > 2.47 µg/mL | 
COc1cc(/C=C/c2ccccc2)c(C(=O)OCC(O)CO)c(O)c1CC=C(C)C (stereo not drawn) [Compound 9e, 2,3-dihydroxypropyl2-hydroxy-3-isopentenyl-4-methoxy-6-[(E)-styryl]benzoate] | 0.73 µg/mL (≈ 1.77 µM) | stronger anti-HIV, HCV viral activities | 0.66 µg/mL (≈ 1.6 µM) | stronger anti-HIV, HCV viral activities | 0.21 µg/mL (≈ 0.509 µM) | 90.8 ± 4.3% | the strongest activities | 91.3 ± 2.4% | the strongest activities | 0.1 µg/mL (≈ 0.242 µM) | significantly stronger than the lead compound cajanine
COC(=O)c1c(/C=C/CCc2ccccc2)cc(OC)c(CC=C(C)C)c1O [Compound 8l, methyl 2-hydroxy-3-isopentenyl-4-methoxy-6-[(E)-4′-phenylbuten-1′-yl]benzoate] | 5.17 µg/mL (≈ 13.6 µM) |  | 5.95 µg/mL (≈ 15.6 µM) |  | > 6.17 µg/mL | 64.7 ± 1.8% |  | 51.1 ± 17% |  | 5.75 µg/mL (≈ 15.1 µM) | 
COc1cc(/C=C/c2ccc(C)cc2)c(C(=O)O)c(O)c1CC=C(C)C [Compound 1g, 2-hydroxy-3-isopentenyl-4-methoxy-6-[(E)-4-methylstyryl]benzoic acid] | 0.68 µg/mL (≈ 1.93 µM) |  | 1.43 µg/mL (≈ 4.06 µM) |  | 4.25 µg/mL (≈ 12.1 µM) | 77.7 ± 12.9% |  | 59.8 ± 11.4% |  | > 0.82 µg/mL | 
COc1cc(/C=C/c2ccccc2)c(C(=O)O)c(OCN)c1CC=C(C)C [Compound 26b, 2-aminomethoxy-3-isopentenyl-4-methoxy-6-[(E)-styryl]benzoic acid] | 7.83 µg/mL (≈ 21.3 µM) |  | 5.66 µg/mL (≈ 15.4 µM) |  | 3.54 µg/mL (≈ 9.63 µM) | 89.7 ± 6.3% |  | 88.2 ± 4.1% |  | 3.65 µg/mL (≈ 9.93 µM) | 
COc1cc(/C=C/c2ccccc2Cl)c(C(=O)O)c(O)c1CC=C(C)C [Compound 1b, 2-hydroxy-3-isopentenyl-4-methoxy-6-[(E)-2-chlorostyryl]benzoic acid] | 1.22 µg/mL (≈ 3.27 µM) | stronger anti-HIV, HCV viral activities | 0.67 µg/mL (≈ 1.8 µM) | stronger anti-HIV, HCV viral activities | > 1.03 µg/mL | 68.2 ± 8% |  | 15.7 ± 0.3% |  | > 18.5 µg/mL | 
COc1cc(CCc2ccccc2)cc(O)c1CCC(C)C [Compound 10u, 2-isopentyl-3-methoxy-5-phenethyl phenol] | 6.39 µg/mL (≈ 21.4 µM) |  | 4.06 µg/mL (≈ 13.6 µM) |  | > 6.19 µg/mL | 85.4 ± 2.3% | the strongest activities | 87.6 ± 3.2% | the strongest activities | > 2.06 µg/mL | 
COc1cc(/C=C/c2ccccc2)c(C(=O)NC(=N)N)c(O)c1CC=C(C)C [Compound 23b, N-amidino-2-hydroxy-3-isopentenyl-4-methoxy-6-[(E)-styryl]benzamide] | 3.9 µg/mL (≈ 10.3 µM) | stronger anti-HIV, HCV viral activities | 0.53 µg/mL (≈ 1.4 µM) | stronger anti-HIV, HCV viral activities | 0.24 µg/mL (≈ 0.632 µM) | 81.3 ± 5% |  | 79.8 ± 4.6% |  | 0.13 µg/mL (≈ 0.343 µM) | significantly stronger than the lead compound cajanine
COc1cc(/C=C/c2cc(O)ccn2)c(C(=O)O)c(O)c1CC=C(C)C [Compound 1w, 2-hydroxy-3-isopentenyl-4-methoxy-6-[(E)-2-(4-hydroxypyrid-2-yl)ethenyl]benzoic acid] | 2.87 µg/mL (≈ 8.08 µM) |  | 2.06 µg/mL (≈ 5.8 µM) |  | 0.54 µg/mL (≈ 1.52 µM) | 88.9 ± 2.5% | the strongest activities | 89.3 ± 5.4% | the strongest activities | 0.19 µg/mL (≈ 0.535 µM) | significantly stronger than the lead compound cajanine
COc1cc(/C=C(\C)c2ccccc2)c(C(=O)O)c(O)c1CC=C(C)C [Compound 1i, 2-hydroxy-3-isopentenyl-4-methoxy-6-[(E)-2-phenylpropen-1-yl]benzoic acid] | 1.31 µg/mL (≈ 3.72 µM) | stronger anti-HIV, HCV viral activities | 0.59 µg/mL (≈ 1.67 µM) | stronger anti-HIV, HCV viral activities | 6.25 µg/mL (≈ 17.7 µM) | 55.1 ± 4.8% |  | 28.3 ± 7.6% |  | > 0.82 µg/mL | 
COC(=O)c1c(/C=C(\C)c2ccccc2)cc(OC)c(CC=C(C)C)c1O [Compound 8i, methyl 2-hydroxy-3-isopentenyl-4-methoxy-6-[(E)-2-phenylpropen-1-yl]-benzoate] | 3.8 µg/mL (≈ 10.4 µM) |  | 3.47 µg/mL (≈ 9.47 µM) |  | 6.89 µg/mL (≈ 18.8 µM) | 69.4 ± 2.6% |  | 46.4 ± 16.6% |  | > 2.47 µg/mL | 
COC(=O)c1c(/C=C/c2cccc(OC)n2)cc(OC)c(CC=C(C)C)c1O [Compound 8y, methyl 2-hydroxy-3-isopentenyl-4-methoxy-6-[(E)-2-(6-methoxy-pyrid-2-yl)ethenyl]benzoate] | 6.8 µg/mL (≈ 17.7 µM) |  | 4.33 µg/mL (≈ 11.3 µM) |  | 7.12 µg/mL (≈ 18.6 µM) | 48.9 ± 6.5% |  | 49.8 ± 2.6% |  | 2.14 µg/mL (≈ 5.58 µM) | 
COc1cc(/C=C/c2cc(O)cc(O)n2)cc(O)c1CC=C(C)C [10e′] | 0.71 µg/mL (≈ 2.17 µM) |  | 1.87 µg/mL (≈ 5.71 µM) |  | 1.21 µg/mL (≈ 3.7 µM) | 88.9 ± 2.8% |  | 87.9 ± 4.7% |  | 0.21 µg/mL (≈ 0.641 µM) | 
COc1cc(/C=C/Cc2ccccc2)c(C(=O)O)c(O)c1CC=C(C)C [Compound 1k, 2-hydroxy-3-isopentenyl-4-methoxy-6-[(E)-3′-phenyl-propen-1′-yl]benzoic acid] | 2.4 µg/mL (≈ 6.81 µM) |  | 1.03 µg/mL (≈ 2.92 µM) |  | > 2.06 µg/mL | 60.4 ± 3.2% |  | 19.2 ± 0.5% |  | 2.05 µg/mL (≈ 5.82 µM) | significantly stronger than the lead compound cajanine
CC/C=C/c1cc(OC)c(CC=C(C)C)c(O)c1C(=O)OC [Compound 8h, methyl 2-hydroxy-3-isopentenyl-4-methoxy-6-[(E)-buten-1-yl]-benzoate] | 2.66 µg/mL (≈ 8.74 µM) |  | 1.42 µg/mL (≈ 4.67 µM) |  | > 2.06 µg/mL | 72.4 ± 4.3% |  | 35.4 ± 10.6% |  | 1.92 µg/mL (≈ 6.31 µM) | 
COc1cc(/C=C/c2cccc(O)n2)c(C(=O)O)c(O)c1CC=C(C)C [1c′, 2-hydroxy-3-isopentenyl-4-methoxy-6-[(E)-2-(6-hydroxypyrid-2-yl)ethenyl]benzoic acid] | 1.61 µg/mL (≈ 4.53 µM) |  | 1.3 µg/mL (≈ 3.66 µM) |  | 2.56 µg/mL (≈ 7.2 µM) | 85.6 ± 3.8% |  | 85.9 ± 4.7% |  | 1.34 µg/mL (≈ 3.77 µM) | 
COC(=O)c1c(/C=C/c2ccccc2)cc(OC)c(C/C=C(\C)CCC=C(C)C)c1O [Compound 8o, methyl 2-hydroxy-3-(3′,7′-dimethyloctadien-2′,6′-yl)-4-methoxy-6-[(E)-styryl]benzoate] | 2.96 µg/mL (≈ 7.04 µM) |  | 0.92 µg/mL (≈ 2.19 µM) |  | 2.36 µg/mL (≈ 5.61 µM) | 70.6 ± 6.3% |  | 69.3 ± 5.6% |  | 0.82 µg/mL (≈ 1.95 µM) | significantly stronger than the lead compound cajanine
COC(=O)c1c(/C=C/c2ccccc2)cc(OC)c(CC=C(C)C)c1O [Compound 8, methyl 2-hydroxy-3-isopentenyl-4-methoxy-6-[(E)-styryl]-benzoate] | 1.06 µg/mL (≈ 3.01 µM) | stronger anti-HIV, HCV viral activities | 0.79 µg/mL (≈ 2.24 µM) | stronger anti-HIV, HCV viral activities | 3.56 µg/mL (≈ 10.1 µM) | 78.9 ± 5.7% |  | 76.6 ± 5.8% |  | 0.69 µg/mL (≈ 1.96 µM) | 
COc1cc(/C=C/c2ccccn2)cc(O)c1CC=C(C)C [Compound 10x, 2-isopentenyl-3-methoxy-5-[(E)-2-(pyrid-2-yl)ethenyl]phenol] | 1.09 µg/mL (≈ 3.69 µM) |  | 0.93 µg/mL (≈ 3.15 µM) |  | 0.42 µg/mL (≈ 1.42 µM) | 78.9 ± 5.4% |  | 78.9 ± 4.6% |  | 0.09 µg/mL (≈ 0.305 µM) | significantly stronger than the lead compound cajanine
